Reference: PubChem BioAssay (NCI)
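Step 1: Grow cells in 96-well plates. Step 2: Expose to compound for 48 hours at 5 concentrations. Step 3: Interpolate endpoints linearly; if unreached, use highest concentration. GI50 is the concentration that inhibits growth by half. Definition used: TGI = concentration required for complete inhibition of growth.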

Assays:
Assay in all cases: inhibition of tumour cell growth, NCI panel, 48 h
HCT-15 colon = test system: HCT-15 colon
OVCAR-5 ovarian = test system: OVCAR-5 ovarian
SNB-19 CNS = test system: SNB-19 CNS
HCC-2998 colon = test system: HCC-2998 colon
U251 CNS = test system: U251 CNS
MCF7 breast = test system: MCF7 breast
UACC-257 melanoma = test system: UACC-257 melanoma
MOLT-4 leukemia = test system: MOLT-4 leukemia
HOP-62 NSCLC = test system: HOP-62 NSCLC
HT29 colon = test system: HT29 colon
NCI/ADR-RES ovarian = test system: NCI/ADR-RES ovarian
HOP-92 NSCLC = test system: HOP-92 NSCLC
DU-145 prostate = test system: DU-145 prostate
SK-MEL-5 melanoma = test system: SK-MEL-5 melanoma
ACHN renal = test system: ACHN renal
RXF 393 renal = test system: RXF 393 renal
LOX IMVI melanoma = test system: LOX IMVI melanoma
HCT-116 colon = test system: HCT-116 colon
786-0 renal = test system: 786-0 renal
A498 renal = test system: A498 renal
BT-549 breast = test system: BT-549 breast
NCI-H522 lung = test system: NCI-H522 lung
NCI-H23 lung = test system: NCI-H23 lung
CCRF-CEM leukemia = test system: CCRF-CEM leukemia
RPMI-8226 leukemia = test system: RPMI-8226 leukemia
UACC-62 melanoma = test system: UACC-62 melanoma
OVCAR-8 ovarian = test system: OVCAR-8 ovarian
MDA-MB-231 breast = test system: MDA-MB-231 breast

COc1cc(/C=C/C(=O)Nc2ccc3c(c2)/C(=C\c2cccn2C)C(=O)N3)cc(OC)c1OC
TGI (HCT-15 colon): > 100 µM | GI50 (OVCAR-5 ovarian): 16.6 µM | TGI (OVCAR-5 ovarian): 35.2 µM | GI50 (SNB-19 CNS): 3.89 µM | TGI (SNB-19 CNS): > 100 µM | GI50 (HCC-2998 colon): 5.34 µM | TGI (HCC-2998 colon): 20.9 µM | GI50 (U251 CNS): 3.41 µM | TGI (U251 CNS): 20 µM | GI50 (MCF7 breast): 1.15 µM | TGI (MCF7 breast): 6.7 µM | GI50 (UACC-257 melanoma): 10.1 µM | TGI (UACC-257 melanoma): 31.2 µM | GI50 (MOLT-4 leukemia): 4 µM | TGI (MOLT-4 leukemia): 82.4 µM | GI50 (HOP-62 NSCLC): 3.71 µM | TGI (HOP-62 NSCLC): 32 µM | GI50 (HT29 colon): 3.45 µM | TGI (HT29 colon): 16.7 µM | GI50 (NCI/ADR-RES ovarian): 67.7 µM | TGI (NCI/ADR-RES ovarian): > 100 µM | GI50 (HOP-92 NSCLC): 1.54 µM | TGI (HOP-92 NSCLC): 8.46 µM | GI50 (DU-145 prostate): 7.9 µM | TGI (DU-145 prostate): > 100 µM | GI50 (SK-MEL-5 melanoma): 1.92 µM | TGI (SK-MEL-5 melanoma): 6.68 µM | GI50 (ACHN renal): 6.05 µM | TGI (ACHN renal): 53.9 µM | GI50 (RXF 393 renal): 4.99 µM | TGI (RXF 393 renal): 19.7 µM | GI50 (LOX IMVI melanoma): 4.21 µM | TGI (LOX IMVI melanoma): 20.5 µM | GI50 (HCT-116 colon): 4.68 µM | TGI (HCT-116 colon): 29.2 µM | GI50 (786-0 renal): 8.69 µM | TGI (786-0 renal): 98.9 µM | GI50 (A498 renal): 2.65 µM | TGI (A498 renal): 17.6 µM | GI50 (BT-549 breast): 6.33 µM | TGI (BT-549 breast): 24.9 µM | GI50 (NCI-H522 lung): 2.41 µM | TGI (NCI-H522 lung): 11.7 µM | GI50 (NCI-H23 lung): 5.01 µM | TGI (NCI-H23 lung): 27.2 µM | GI50 (CCRF-CEM leukemia): 2.47 µM | TGI (CCRF-CEM leukemia): 33.5 µM | GI50 (RPMI-8226 leukemia): 1.69 µM | TGI (RPMI-8226 leukemia): 4.04 µM | GI50 (UACC-62 melanoma): 3.45 µM | TGI (UACC-62 melanoma): 33.7 µM | GI50 (OVCAR-8 ovarian): 3.75 µM | TGI (OVCAR-8 ovarian): > 100 µM | GI50 (MDA-MB-231 breast): 2.3 µM | TGI (MDA-MB-231 breast): 17.8 µM
